The values that follow come from article PMC8026246 (Bioorganic Chemistry, 2021).

In this test the target is SARS-CoV-2 M^pro (Severe acute respiratory syndrome coronavirus 2, UniProt P0DTD1). It is filed as binding. Particulars: pH 6.8.

As to `CCN(CC)c1ccc2c(-c3ccccc3C(=O)O)c3ccc(=[N+](CC)CC)cc-3oc2c1` [rhodamine B], the “Fluorescent labeling of M^pro (gel, UV 365 nm)” value is listed as “could not label M^pro”.
